Columns and labels:
S9 metabolism = assay type: in vitro ADME, CD2F1 mice
Method: The in vitro metabolism of KCN1 was determined using hepatic microsomal S9 fractions from CD2F1 mice (In Vitro Technologies, Boston, MA). The reaction mixture consisted of 20 µL of 1000 µM KCN1 (in DMSO) and 1280 µL of cold 100 mM Tris buffer (pH 7.4). The reactions were initiated by adding 200 µL of the appropriate S9 fraction, and were maintained at 37°C. […] Metabolic reactions were initiated by adding phase I (NADPH-regenerating systems) or phase II (UDPGA and PAPS) reagents to the reaction mixtures, respectively. At designated time points (0, 15, 30, 45, and 60 min), duplicate 100 µL portions of the incubation mixture were removed and subjected to HPLC analysis by the same procedure described for plasma samples above. The stability of the drug was determined by analysis of intact KCN1, in comparison with negative control (without S9 fractions).

[1] = test system: HPAC, Panc-1, Mia Paca-2 and BxPC3 pancreatic cancer cells; experiment: Western blot of cell cycle-related proteins; assay type: cell-based, human; settings: all four cell lines, 12 h and 24 h
Method: In the in vitro studies, cells were exposed to various concentrations of KCN1 for 12 or 24 h. For immunoblotting, cell lysates were fractionated with identical amounts of protein by SDS-PAGE and transferred to Bio-Rad trans-Blot nitrocellulose membranes (Bio-Rad Laboratories, Hercules, CA). The nitrocellulose membrane was then incubated in blocking buffer (Tris-buffered saline containing 0.1% Tween 20 and 5% non-fat milk) for 1 hr at room temperature. Then the membrane was incubated with the appropriate primary antibody overnight at 4°C or 2 h at room temperature with gentle shaking. The membrane was washed three times with rinsing buffer (Tris-buffered saline containing 0.1% Tween 20) for 15 min and then incubated with goat anti-mouse/rabbit IgG-horseradish peroxidase-conjugated antibody (Bio-Rad) for 1 h at room temperature. After repeating the washes in triplicate, the protein of interest was detected by enhanced chemilluminescence reagents from PerkinElmer LAS, Inc (Boston, MA).

[2] = Plasma protein binding assay (ultrafiltration); assay type: in vitro ADME; settings: mouse plasma
Method: The extent to which KCN1 was bound by mouse plasma proteins was assessed by a previously described method involving the use of a micro-ultrafiltration system. Samples of mouse plasma containing KCN1 at concentrations of 1.0 and 10 µM were maintained at 37°C for 1 h. Controls were prepared using methanol in place of plasma. From each of these preparations, a portion was taken and placed in a sample reservoir of an Amicon Centrifree® ultrafiltration system (Millipore Co., Bedford, MA). The filter systems were centrifuged at 2,000 × g until the reservoirs were dry. From each sample, triplicate portions were taken for analysis by HPLC. The amounts present in the filtrate were designated as “free drug” (F). The concentrations of the unfiltered solutions were also determined by triplicate analyses. This amount represented the “total drug” concentration (T). The amount bound to the filter (X) was also considered. The percentage of KCN1 bound to plasma proteins was calculated by the following formula: % bound = [(T-F-X)/T]×100.

COc1ccc(S(=O)(=O)N(Cc2ccc3c(c2)C=CC(C)(C)O3)c2ccccc2)cc1OC [KCN1, 3,4-dimethoxy-N-[(2,2-dimethyl-2H-chromen-6-yl)methyl]-N-phenylbenzenesulfonamide]
decrease in amount of KCN1 (S9 metabolism; mouse S9, phase I (oxidation) enzymes, NADPH-regenerating system): more than 60%
half-life with phase II enzymes (S9 metabolism; mouse S9, phase II (conjugation) enzymes, UDPGA and PAPS): relatively long half-life
expression of E2F1, Cdk2, Cdk4, Cdk6, Cdc25c, Cyclin D1 and Cyclin E [1]: decreased expression
expression of p21 and p27 [1]: increased the expression
binding to plasma proteins ([2]; 1.0 µM): 90.96%
binding to plasma proteins ([2]; 10.0 µM): 99.32%
